Results: publication PMC6814738, “Bacterial MgrB peptide activates chemoreceptor Fpr3 in mouse accessory olfactory system and drives avoidance behaviour” (Nature Communications, 2019)
Entries after “also recorded” stand apart in the source; their conditions may differ. Peptide text beside a SMILES is read from it. * marks the point of attachment. For = O=C*

Experiments:
Fpr3-expressing VSNs [1] = test: Egr1 induction in Fpr3-positive VSNs after voluntary peptide uptake in freely behaving mice, RNAscope (Fig. 7d, f); assay type: in vivo, mouse; settings: male B6 mice
Protocol: For each mouse, serial coronal VNO cryosections (12 µm) were collected as two alternate sets, each representing every second section of the whole VNO. One set was subjected to RNAscope in situ hybridisation using the RNAscope Fluorescent Multiplex Detection Kit (ACD Bio-Techne) and specific probes for Fpr3 and LacZ according to the manufacturer’s protocol. Sections were incubated in 1 x citrate buffer pH 6.0 (DAKO, Germany) for 5 min at 98 °C in a coplin jar, rinsed twice in distilled water, dehydrated in 100% ethanol, and air dried prior to protease III treatment for 30 min at 40 °C. […] Following hybridisation (2 h, 40 °C), sections were rinsed twice for 2 min in wash buffer (ACD Bio-Techne), and sequentially treated with amplification solutions at 40 °C (30 min Amp1-FL, 15 min Amp2-FL, 30 min Amp3-FL) and fluorescence reagent (15 min, 40 °C Amp4-altC), with intermitting washing steps at room temperature between reagents. Cell nuclei were stained with DAPI solution (ACD Bio-Techne) for 1 min, and tissue sections were mounted with DAKO fluorescence medium and stored for 12 h at 4 °C. Fluorescence images of the RNAscope results were acquired from each section using a Zeiss LSM 880 confocal microscope containing a 32-channel GaAsP-PMT and 2-channel PMT QUASAR detector. […]

Fpr3-expressing VSNs [2] = test: Egr1 induction in Fpr3-positive VSNs after oronasal peptide application, RNAscope (Fig. 7c, e); assay type: in vivo, mouse; settings: 100 µM, male B6 mice
Protocol: For each mouse, serial coronal VNO cryosections (12 µm) were collected as two alternate sets, each representing every second section of the whole VNO. One set was subjected to RNAscope in situ hybridisation using the RNAscope Fluorescent Multiplex Detection Kit (ACD Bio-Techne) and specific probes for Fpr3 and LacZ according to the manufacturer’s protocol. Sections were incubated in 1 x citrate buffer pH 6.0 (DAKO, Germany) for 5 min at 98 °C in a coplin jar, rinsed twice in distilled water, dehydrated in 100% ethanol, and air dried prior to protease III treatment for 30 min at 40 °C. After rinsing in distilled water, sections were simultaneously hybridised with RNA scope target probes generated for mouse Fpr3 and E.coli LacZ (ACD Bio-Techne). The Fpr3 probe was designed as channel 1 probe containing 7 ZZ structures targeting base pairs 456–1143 of NM_008042.2, specific to mouse Fpr3. The LacZ probe, designed as channel 3 probe contains 30 ZZ structures targeting the region 279–1790 bp of KC847299.1 (cat# 313451-C3). […] Following hybridisation (2 h, 40 °C), sections were rinsed twice for 2 min in wash buffer (ACD Bio-Techne), and sequentially treated with amplification solutions at 40 °C (30 min Amp1-FL, 15 min Amp2-FL, 30 min Amp3-FL) and fluorescence reagent (15 min, 40 °C Amp4-altC), with intermitting washing steps at room temperature between reagents. Cell nuclei were stained with DAPI solution (ACD Bio-Techne) for 1 min, and tissue sections were mounted with DAKO fluorescence medium and stored for 12 h at 4 °C. Fluorescence images of the RNAscope results were acquired from each section using a Zeiss LSM 880 confocal microscope containing a 32-channel GaAsP-PMT and 2-channel PMT QUASAR detector.
We stimulated adult male B6 mice with f-MKKFRW (100 µM) and performed double-labelling RNAscope in situ hybridisation for Fpr3 and the immediate early gene Egr1 on VNO tissue sections. […] VNO tissue was prepared for RNAscope fluorescence in situ hybridisation as described above using Fpr3 and Egr1 probes simultaneously. […]

mouse Fpr3 = settings: cited from earlier work
Protocol: We estimate the fraction of knobs responding to f-MKKFRW as ~0.15%, which is similar to the fraction of cells in the VNE that express Fpr3[30]. Strikingly, the sensitivity and sequence-selectivity profile of these responses was nearly identical to the results that we obtained for heterologously expressed Fpr3. The detection threshold of native VSNs for f-MKKFRW was ≤0.1 µM (Fig. 4f), virtually the same as for Fpr3-expres ... || Given the importance of the olfactory system in a variety of behavioural avoidance and defence mechanisms[14],[62],[63], we reasoned that in vivo detection of MgrB peptide may evoke an avoidance reaction in mice. We devised a behavioural assay[14],[60] in order to determine whether direct nasal contact with MgrB peptide evokes unconditioned, innate avoidance (Fig. 8a and Methods). […] (Fig ... || We used custom-made peptides with a length of 6–21 amino acids to screen for agonists. Sequences of fMet peptides were designed according to motifs present at the N-termini of 15,125 specific bacterial proteins as annotated in UniProt. Peptides were chemically synthesised, purified, and verified by mass spectroscopy (MALDI-TOF) by commercial suppliers. Purity of all peptides was >95%. Source, sequence and purity of each peptide are listed in Supplementary Data 1. Lyophilised peptides were routinely dissolved in the Ca^2+ imaging assay buffer C1 (130 mM NaCl, 10 mM HEPES, 5 mM KCl, 2 mM CaCl2, ...

| Molecule | fraction of Fpr3-positive VSNs co-localised with Egr1 (Fpr3-expressing VSNs [1]; 100 µM in 50% FEU, mean ± s.d.) | Egr1-positive / Fpr3-positive VSNs (Fpr3-expressing VSNs [1]; 100 µM) | Egr1-positive / Fpr3-positive VSNs (Fpr3-expressing VSNs [2]; oronasal) | fraction of Fpr3-positive VSNs co-localised with Egr1 (Fpr3-expressing VSNs [2]; oronasal, mean ± s.d.) | Egr1 induction in Fpr3-positive VSNs (Fpr3-expressing VSNs [2]; oronasal or voluntary uptake, both types of experiments) | activation of heterologously expressed Fpr3, in words (mouse Fpr3) |
| --- | --- | --- | --- | --- | --- | --- |
| CSCC[C@H](NC=O)C(=O)N[C@@H](CCCCN)C(=O)N[C@@H](CCCCN)C(=O)N[C@@H](Cc1ccccc1)C(=O)N[C@@H](CCCNC(=N)N)C(=O)N[C@@H](Cc1c[nH]c2ccccc12)C(=O)O [f-MKKFRW] (For-MKKFRW-OH) | 0.46 ± 0.12 | 77/160 | 145/317 | 0.46 ± 0.11 | ~ 50% | – |
| f-MGFFIS [bacterial signal peptide fragment] | – | – | – | – | – | not Fpr3; also recorded: failed to activate heterologously expressed Fpr3 |
